Test results: the NIST ThermoML archive (doi:10.1021/je200195q)
± gives the expanded uncertainty stated by the source.

experiment: activity coefficient (dimensionless); of the first substance listed, at infinite dilution; xn = mol fraction of the nth substance listed; settings: 312.55 K; 101 kPa; Liquid; Chromatography; x1 = 0

| Compound | activity coefficient |
| --- | --- |
| CCCCCCC [heptane] + CCn1cc[n+](C)c1.CS(=O)(=O)[O-] | 432 ± 30 |
| CCCCCC [hexane] + CCn1cc[n+](C)c1.CS(=O)(=O)[O-] | 207 ± 14 |
| C=O [methanal] + CCn1cc[n+](C)c1.CS(=O)(=O)[O-] | 0.615 ± 0.043 |
| CO [methanol] + CCn1cc[n+](C)c1.CS(=O)(=O)[O-] | 0.249 ± 0.03 |
| C[N+](=O)[O-] [nitromethane] + CCn1cc[n+](C)c1.CS(=O)(=O)[O-] | 2.06 ± 0.14 |

same assay, conditions: 312.8 K; 101 kPa; Liquid; Chromatography; x1 = 0

| Compound | activity coefficient |
| --- | --- |
| CCCCCCC [heptane] + CCCCCC[n+]1ccn(C)c1.FC(F)(F)C(F)(F)[P-](F)(F)(F)(C(F)(F)C(F)(F)F)C(F)(F)C(F)(F)F | 8.84 ± 0.6 |
| C=CCCCC [hex-1-ene] + CCCCCC[n+]1ccn(C)c1.FC(F)(F)C(F)(F)[P-](F)(F)(F)(C(F)(F)C(F)(F)F)C(F)(F)C(F)(F)F | 3.67 ± 0.25 |
| CCCCCC [hexane] + CCCCCC[n+]1ccn(C)c1.FC(F)(F)C(F)(F)[P-](F)(F)(F)(C(F)(F)C(F)(F)F)C(F)(F)C(F)(F)F | 6.39 ± 0.44 |
| C=O [methanal] + CCCCCC[n+]1ccn(C)c1.FC(F)(F)C(F)(F)[P-](F)(F)(F)(C(F)(F)C(F)(F)F)C(F)(F)C(F)(F)F | 0.096 ± 0.03 |
| CO [methanol] + CCCCCC[n+]1ccn(C)c1.FC(F)(F)C(F)(F)[P-](F)(F)(F)(C(F)(F)C(F)(F)F)C(F)(F)C(F)(F)F | 1.57 ± 0.1 |
| CC1CCCCC1 [methylcyclohexane] + CCCCCC[n+]1ccn(C)c1.FC(F)(F)C(F)(F)[P-](F)(F)(F)(C(F)(F)C(F)(F)F)C(F)(F)C(F)(F)F | 5.89 ± 0.4 |
| CC1CCCC1 [methylcyclopentane] + CCCCCC[n+]1ccn(C)c1.FC(F)(F)C(F)(F)[P-](F)(F)(F)(C(F)(F)C(F)(F)F)C(F)(F)C(F)(F)F | 4.58 ± 0.31 |
| C[N+](=O)[O-] [nitromethane] + CCCCCC[n+]1ccn(C)c1.FC(F)(F)C(F)(F)[P-](F)(F)(F)(C(F)(F)C(F)(F)F)C(F)(F)C(F)(F)F | 0.452 ± 0.036 |
| CCCCCCCCC [nonane] + CCCCCC[n+]1ccn(C)c1.FC(F)(F)C(F)(F)[P-](F)(F)(F)(C(F)(F)C(F)(F)F)C(F)(F)C(F)(F)F | 17.7 ± 1.2 |

same assay, conditions: 322.45 K; 101 kPa; Liquid; Chromatography; x1 = 0

| Compound | activity coefficient |
| --- | --- |
| CCCCCCC [heptane] + CCn1cc[n+](C)c1.CS(=O)(=O)[O-] | 2230 ± 150 |
| CCCCCC [hexane] + CCn1cc[n+](C)c1.CS(=O)(=O)[O-] | 190 ± 13 |
| C=O [methanal] + CCn1cc[n+](C)c1.CS(=O)(=O)[O-] | 0.656 ± 0.045 |
| CO [methanol] + CCn1cc[n+](C)c1.CS(=O)(=O)[O-] | 0.254 ± 0.03 |
| C[N+](=O)[O-] [nitromethane] + CCn1cc[n+](C)c1.CS(=O)(=O)[O-] | 1.26 ± 0.081 |

same assay, conditions: 322.55 K; 101 kPa; Liquid; Chromatography; x1 = 0

| Compound | activity coefficient |
| --- | --- |
| CCCCCCC [heptane] + CCCCn1cc[n+](C)c1.O=S(=O)([N-]S(=O)(=O)C(F)(F)C(F)(F)F)C(F)(F)C(F)(F)F | 13.6 ± 0.93 |
| C=CCCCC [hex-1-ene] + CCCCn1cc[n+](C)c1.O=S(=O)([N-]S(=O)(=O)C(F)(F)C(F)(F)F)C(F)(F)C(F)(F)F | 6.07 ± 0.41 |
| CCCCCC [hexane] + CCCCn1cc[n+](C)c1.O=S(=O)([N-]S(=O)(=O)C(F)(F)C(F)(F)F)C(F)(F)C(F)(F)F | 9.49 ± 0.65 |
| C=O [methanal] + CCCCn1cc[n+](C)c1.O=S(=O)([N-]S(=O)(=O)C(F)(F)C(F)(F)F)C(F)(F)C(F)(F)F | 0.134 ± 0.029 |
| CO [methanol] + CCCCn1cc[n+](C)c1.O=S(=O)([N-]S(=O)(=O)C(F)(F)C(F)(F)F)C(F)(F)C(F)(F)F | 1.23 ± 0.079 |
| CC1CCCCC1 [methylcyclohexane] + CCCCn1cc[n+](C)c1.O=S(=O)([N-]S(=O)(=O)C(F)(F)C(F)(F)F)C(F)(F)C(F)(F)F | 9.09 ± 0.62 |
| CC1CCCC1 [methylcyclopentane] + CCCCn1cc[n+](C)c1.O=S(=O)([N-]S(=O)(=O)C(F)(F)C(F)(F)F)C(F)(F)C(F)(F)F | 6.85 ± 0.47 |
| C[N+](=O)[O-] [nitromethane] + CCCCn1cc[n+](C)c1.O=S(=O)([N-]S(=O)(=O)C(F)(F)C(F)(F)F)C(F)(F)C(F)(F)F | 0.625 ± 0.043 |
| CCCCCCCCC [nonane] + CCCCn1cc[n+](C)c1.O=S(=O)([N-]S(=O)(=O)C(F)(F)C(F)(F)F)C(F)(F)C(F)(F)F | 31.5 ± 2.2 |

same assay, conditions: 323.1 K; 101 kPa; Liquid; Chromatography; x1 = 0

| Compound | activity coefficient |
| --- | --- |
| CCCCCCC [heptane] + CCCCCCCCCCn1cc[n+](CCCCCCCCCC)c1C.O=S(=O)([N-]S(=O)(=O)C(F)(F)F)C(F)(F)F | 2.53 ± 0.17 |
| C=CCCCC [hex-1-ene] + CCCCCCCCCCn1cc[n+](CCCCCCCCCC)c1C.O=S(=O)([N-]S(=O)(=O)C(F)(F)F)C(F)(F)F | 1.39 ± 0.091 |
| CCCCCC [hexane] + CCCCCCCCCCn1cc[n+](CCCCCCCCCC)c1C.O=S(=O)([N-]S(=O)(=O)C(F)(F)F)C(F)(F)F | 1.82 ± 0.12 |
| C=O [methanal] + CCCCCCCCCCn1cc[n+](CCCCCCCCCC)c1C.O=S(=O)([N-]S(=O)(=O)C(F)(F)F)C(F)(F)F | 0.074 ± 0.03 |
| CO [methanol] + CCCCCCCCCCn1cc[n+](CCCCCCCCCC)c1C.O=S(=O)([N-]S(=O)(=O)C(F)(F)F)C(F)(F)F | 0.963 ± 0.061 |
| CC1CCCCC1 [methylcyclohexane] + CCCCCCCCCCn1cc[n+](CCCCCCCCCC)c1C.O=S(=O)([N-]S(=O)(=O)C(F)(F)F)C(F)(F)F | 1.52 ± 0.1 |
| CC1CCCC1 [methylcyclopentane] + CCCCCCCCCCn1cc[n+](CCCCCCCCCC)c1C.O=S(=O)([N-]S(=O)(=O)C(F)(F)F)C(F)(F)F | 1.35 ± 0.088 |
| C[N+](=O)[O-] [nitromethane] + CCCCCCCCCCn1cc[n+](CCCCCCCCCC)c1C.O=S(=O)([N-]S(=O)(=O)C(F)(F)F)C(F)(F)F | 0.596 ± 0.042 |
| CCCCCCCCC [nonane] + CCCCCCCCCCn1cc[n+](CCCCCCCCCC)c1C.O=S(=O)([N-]S(=O)(=O)C(F)(F)F)C(F)(F)F | 3.31 ± 0.23 |

same assay, conditions: 332.45 K; 101 kPa; Liquid; Chromatography; x1 = 0

| Compound | activity coefficient |
| --- | --- |
| CCCCCCC [heptane] + CCn1cc[n+](C)c1.CS(=O)(=O)[O-] | 497 ± 34 |
| CCCCCC [hexane] + CCn1cc[n+](C)c1.CS(=O)(=O)[O-] | 152 ± 10 |
| C=O [methanal] + CCn1cc[n+](C)c1.CS(=O)(=O)[O-] | 0.691 ± 0.046 |
| CO [methanol] + CCn1cc[n+](C)c1.CS(=O)(=O)[O-] | 0.264 ± 0.03 |
| C[N+](=O)[O-] [nitromethane] + CCn1cc[n+](C)c1.CS(=O)(=O)[O-] | 0.801 ± 0.052 |

same assay, conditions: 332.85 K; 101 kPa; Liquid; Chromatography; x1 = 0

| Compound | activity coefficient |
| --- | --- |
| CCCCCCC [heptane] + CCCCCC[n+]1ccn(C)c1.FC(F)(F)C(F)(F)[P-](F)(F)(F)(C(F)(F)C(F)(F)F)C(F)(F)C(F)(F)F | 7.73 ± 0.53 |
| C=CCCCC [hex-1-ene] + CCCCCC[n+]1ccn(C)c1.FC(F)(F)C(F)(F)[P-](F)(F)(F)(C(F)(F)C(F)(F)F)C(F)(F)C(F)(F)F | 3.42 ± 0.23 |
| CCCCCC [hexane] + CCCCCC[n+]1ccn(C)c1.FC(F)(F)C(F)(F)[P-](F)(F)(F)(C(F)(F)C(F)(F)F)C(F)(F)C(F)(F)F | 5.69 ± 0.39 |
| C=O [methanal] + CCCCCC[n+]1ccn(C)c1.FC(F)(F)C(F)(F)[P-](F)(F)(F)(C(F)(F)C(F)(F)F)C(F)(F)C(F)(F)F | 0.134 ± 0.029 |
| CO [methanol] + CCCCCC[n+]1ccn(C)c1.FC(F)(F)C(F)(F)[P-](F)(F)(F)(C(F)(F)C(F)(F)F)C(F)(F)C(F)(F)F | 2.01 ± 0.14 |
| CC1CCCCC1 [methylcyclohexane] + CCCCCC[n+]1ccn(C)c1.FC(F)(F)C(F)(F)[P-](F)(F)(F)(C(F)(F)C(F)(F)F)C(F)(F)C(F)(F)F | 5.23 ± 0.36 |
